Source: ChEMBL document CHEMBL1201862, “PubChem BioAssay data set” (2004)
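Growth conditions: 96-well plates. Treatment: test compound, 48 hours, 5 concentrations. Analysis: linear interpolation between bracketing concentrations; unreached endpoints set to highest concentration. GI50: concentration for 50% inhibition of growth.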 The source made the active and inactive calls. No stated cut-off is given here; in the data, active = GI50 up to about 1.1 µM and inactive = higher.

Tests used:
Experiment in all cases: growth of human tumour cells (NCI), 48 h
SF-295 = test system: SF-295
SNB-19 = test system: SNB-19
MDA-N = test system: MDA-N
Malme-3M = test system: Malme-3M
HCT-116 = test system: HCT-116
OVCAR-4 = test system: OVCAR-4
U-251 = test system: U-251
HOP-92 = test system: HOP-92
KM12 = test system: KM12
MCF7 = test system: MCF7
CCRF-CEM = test system: CCRF-CEM
UACC-257 = test system: UACC-257
A549 = test system: A549
T47D = test system: T47D
PC-3 = test system: PC-3
SK-MEL-2 = test system: SK-MEL-2
HT-29 = test system: HT-29
SN12C = test system: SN12C
LOX IMVI = test system: LOX IMVI
MDA-MB-435 = test system: MDA-MB-435

`CC1(/C=C/CCSc2ccccc2)CC(=O)C2CC1C2(C)C` (stereo not drawn) was tested, and the GI50 (SF-295) was 21 µM (inactive), the GI50 (SNB-19) was 35.8 µM (inactive) and the GI50 (MDA-N) was 26.9 µM (inactive). The GI50 (Malme-3M) was 21.3 µM (inactive), the GI50 (HCT-116) was 13 µM (inactive) and the GI50 (OVCAR-4) was 38.5 µM (inactive). The GI50 (U-251) was 14.9 µM (inactive), the GI50 (HOP-92) was 17.9 µM (inactive) and the GI50 (KM12) was 13.2 µM (inactive). For the same compound, the GI50 (MCF7) was 22.6 µM (inactive), the GI50 (CCRF-CEM) was 6.49 µM (inactive) and the GI50 (UACC-257) was 14.7 µM (inactive). The GI50 (A549) was 14.8 µM (inactive), the GI50 (T47D) was 11.2 µM (inactive) and the GI50 (PC-3) was 6.08 µM (inactive). The GI50 (SK-MEL-2) was 14.3 µM (inactive), the GI50 (HT-29) was 12.4 µM (inactive) and the GI50 (SN12C) was 19.1 µM (inactive). For the same compound, the GI50 (LOX IMVI) was 14.8 µM (inactive) and the GI50 (MDA-MB-435) was 19.3 µM (inactive).

For `C#CCC(O)c1ccc(OC)c(OCc2ccccc2)c1` (stereo not drawn), the GI50 (SF-295) was 98.4 µM (inactive), the GI50 (SNB-19) was > 100 µM (inactive) and the GI50 (MDA-N) was > 100 µM (inactive). The GI50 (Malme-3M) was > 100 µM (inactive), the GI50 (HCT-116) was > 100 µM (inactive) and the GI50 (OVCAR-4) was > 100 µM (inactive). The GI50 (U-251) was > 100 µM (inactive), the GI50 (HOP-92) was > 100 µM (inactive) and the GI50 (KM12) was > 100 µM (inactive). The GI50 (MCF7) was > 100 µM (inactive), the GI50 (CCRF-CEM) was 26.7 µM (inactive) and the GI50 (UACC-257) was 52.1 µM (inactive). The GI50 (A549) was > 100 µM (inactive), the GI50 (T47D) was > 100 µM (inactive) and the GI50 (PC-3) was > 100 µM (inactive). For the same compound, the GI50 (SK-MEL-2) was > 100 µM (inactive), the GI50 (HT-29) was > 100 µM (inactive) and the GI50 (SN12C) was > 100 µM (inactive). For the same compound, the GI50 (LOX IMVI) was > 100 µM (inactive) and the GI50 (MDA-MB-435) was > 100 µM (inactive).

`Cc1c(N2C(=O)C(Cl)C2/C=C/c2ccccc2)c(=O)n(-c2ccccc2)n1C` (stereo not drawn) was tested, and the GI50 (SF-295) was 22.1 µM (inactive), the GI50 (MDA-N) was 14.4 µM (inactive) and the GI50 (Malme-3M) was 5.75 µM (inactive). The GI50 (HCT-116) was 16.9 µM (inactive), the GI50 (OVCAR-4) was 29.5 µM (inactive) and the GI50 (U-251) was 6.22 µM (inactive). The GI50 (HOP-92) was 14.1 µM (inactive), the GI50 (KM12) was 12.7 µM (inactive) and the GI50 (MCF7) was 24.7 µM (inactive). The GI50 (CCRF-CEM) was 16.1 µM (inactive), the GI50 (UACC-257) was 4.68 µM (inactive) and the GI50 (A549) was 26.4 µM (inactive). For the same compound, the GI50 (T47D) was 19.8 µM (inactive), the GI50 (PC-3) was 31.6 µM (inactive) and the GI50 (SK-MEL-2) was 17.3 µM (inactive). For the same compound, the GI50 (HT-29) was 24.4 µM (inactive), the GI50 (SN12C) was 20.4 µM (inactive) and the GI50 (LOX IMVI) was 17.3 µM (inactive). The GI50 (MDA-MB-435) was 12.1 µM (inactive).

`CC1(C)C2CCC(O)(C2)C1N` (stereo not drawn) was tested, and the GI50 (SF-295) was > 100 µM (inactive), the GI50 (SNB-19) was > 100 µM (inactive) and the GI50 (MDA-N) was > 100 µM (inactive). The GI50 (Malme-3M) was > 100 µM (inactive), the GI50 (HCT-116) was > 100 µM (inactive) and the GI50 (OVCAR-4) was > 100 µM (inactive). For the same compound, the GI50 (U-251) was > 100 µM (inactive), the GI50 (HOP-92) was > 100 µM (inactive) and the GI50 (KM12) was > 100 µM (inactive). For the same compound, the GI50 (MCF7) was > 100 µM (inactive), the GI50 (CCRF-CEM) was > 100 µM (inactive) and the GI50 (UACC-257) was > 100 µM (inactive). For the same compound, the GI50 (A549) was > 100 µM (inactive), the GI50 (T47D) was > 100 µM (inactive) and the GI50 (PC-3) was > 100 µM (inactive). The GI50 (SK-MEL-2) was > 100 µM (inactive), the GI50 (HT-29) was > 100 µM (inactive) and the GI50 (SN12C) was > 100 µM (inactive). The GI50 (LOX IMVI) was > 100 µM (inactive) and the GI50 (MDA-MB-435) was > 100 µM (inactive).

`Clc1ccc(Oc2ccc(/N=C/c3ccc(Cl)cc3Cl)cc2Cl)cc1` was tested, and the GI50 (SF-295) was 39.5 µM (inactive), the GI50 (SNB-19) was 41.6 µM (inactive) and the GI50 (MDA-N) was 14.8 µM (inactive). The GI50 (Malme-3M) was 27.3 µM (inactive), the GI50 (HCT-116) was 33 µM (inactive) and the GI50 (OVCAR-4) was 44.5 µM (inactive). For the same compound, the GI50 (U-251) was 29.4 µM (inactive), the GI50 (HOP-92) was 34.2 µM (inactive) and the GI50 (KM12) was 29.5 µM (inactive). For the same compound, the GI50 (MCF7) was 33.7 µM (inactive), the GI50 (CCRF-CEM) was 4.29 µM (inactive) and the GI50 (UACC-257) was 66.1 µM (inactive). The GI50 (A549) was 64.6 µM (inactive), the GI50 (T47D) was 43.6 µM (inactive) and the GI50 (PC-3) was 35 µM (inactive). The GI50 (SK-MEL-2) was 61.2 µM (inactive), the GI50 (HT-29) was 36.9 µM (inactive) and the GI50 (SN12C) was 48.3 µM (inactive). For the same compound, the GI50 (LOX IMVI) was 28.3 µM (inactive) and the GI50 (MDA-MB-435) was 18.5 µM (inactive).

For `C=C1C(=O)O[C@@H]2/C=C(\C)CC/C=C(/COC(C)=O)C[C@@H](OC(C)=O)[C@@H]12`, the GI50 (SF-295) was 53.7 µM (inactive), the GI50 (SNB-19) was 29.2 µM (inactive) and the GI50 (MDA-N) was 6 µM (inactive). The GI50 (Malme-3M) was 1.46 µM (inactive), the GI50 (HCT-116) was 3.85 µM (inactive) and the GI50 (OVCAR-4) was 20.2 µM (inactive). The GI50 (U-251) was 18.7 µM (inactive), the GI50 (HOP-92) was 7.73 µM (inactive) and the GI50 (KM12) was 14.8 µM (inactive). For the same compound, the GI50 (MCF7) was 3.71 µM (inactive), the GI50 (CCRF-CEM) was 0.718 µM (active) and the GI50 (UACC-257) was 13.4 µM (inactive). The GI50 (A549) was 37.4 µM (inactive), the GI50 (T47D) was 11.4 µM (inactive) and the GI50 (PC-3) was 16.1 µM (inactive). For the same compound, the GI50 (SK-MEL-2) was 16 µM (inactive), the GI50 (HT-29) was 4.24 µM (inactive) and the GI50 (SN12C) was 11.3 µM (inactive). For the same compound, the GI50 (LOX IMVI) was 5.19 µM (inactive) and the GI50 (MDA-MB-435) was 14.2 µM (inactive).

`C[C@H]1C(OCCOC2O[C@@H]3O[C@@]4(C)CC[C@H]5[C@H](C)CCC([C@H]2C)[C@@]35O4)O[C@@H]2O[C@@]3(C)CC[C@H]4[C@H](C)CCC1[C@@]24O3` (stereo partly drawn) was tested, and the GI50 (SNB-19) was 33.9 µM (inactive), the GI50 (MDA-N) was 38.7 µM (inactive) and the GI50 (Malme-3M) was 15.8 µM (inactive). The GI50 (HCT-116) was 21 µM (inactive), the GI50 (OVCAR-4) was 80.5 µM (inactive) and the GI50 (U-251) was 40.9 µM (inactive). The GI50 (HOP-92) was 45.3 µM (inactive), the GI50 (KM12) was 27.5 µM (inactive) and the GI50 (MCF7) was 37 µM (inactive). For the same compound, the GI50 (CCRF-CEM) was 30.5 µM (inactive), the GI50 (UACC-257) was 33.1 µM (inactive) and the GI50 (A549) was 39.8 µM (inactive). For the same compound, the GI50 (T47D) was 10.6 µM (inactive), the GI50 (PC-3) was 28.5 µM (inactive) and the GI50 (SK-MEL-2) was 17.7 µM (inactive). The GI50 (HT-29) was 35.4 µM (inactive), the GI50 (SN12C) was 21 µM (inactive) and the GI50 (LOX IMVI) was 23.7 µM (inactive). The GI50 (MDA-MB-435) was 38.4 µM (inactive).
